Source: EP0794786B1, “THE USE OF INOSITOLTRI[…] THE PREPARING OF MEDICAMENTS” (Bioneris AB,, priority 1994, dated 1996)

Assays:
Type in all cases: in vivo
[1] = tested on: glioma tumor tissue; assay: Glioma tumor growth in mice after subcutaneous inoculation of rat glial cells, IP3 via osmotic minipumps
Method: Rat glial cells were grown in a stationary suspension culture in a medium supplemented with 15 % heat inactivated horse serum and 2.5 % heat inactivated fetal calf serum in a 5 % CO2 humidified atmosphere at 37°C.
The cells were harvested using trypsine solution and the concentration of cells were measured. The cells were centrifuged and resuspended to a concentration of 1 million cells/ml.
Twelve female specific pathogen free mice at an age of 12 weeks (weighing 20-25 g) were maintained in autoclaved cages with filter tops in horizontal air flow cabiners in a unit equipped with specific filters. Autoclaved bedding, irradiated feed and sterile water was used. The temperature and humidity was kept constant at 22 ± 2°C, 65 ± 5 % relative humidity.
To each animal 0.1 ml of the cellsuspension was inoculated subcutanousely in the right flank at day 0.
After five days, osmotic minipumps (ALZET) were surgically placed subcutanously into 7 animals, while 5 animals, shamoperated, served as a control group.
Each minipump contained approximately 200 µl of a solution of 1.0 g/2,5 ml of the sodium salt of 1-D-myo-inositol-1,2,6-trisphosphate (IP3). The minipumps gave a continous dosage of IP3 for 14 days.
The injection of glioma cells into the animals cause a growth of tumors. The growth of the tumors was examined by measuring two diameters along two perpendicular axes. The true tumor diameter was estimated as the diameter minus 0.5 mm (which is the thickness of the skin). Tumor area (A) was calculated by multiplying the two true diameters and tumor volume was calculated by the formula: /6 x A^3/2 x 0.67.

[2] = Toxicity after intraperitoneal injection to mice; details: 160 mg/kg body weight by intraperitoneal injection to mice
[3] = tested on: prostate tumor tissue; assay: Prostate tumor growth in mice after subcutaneous injection of a specific cell type, IP3 via osmotic minipumps
From the text: In a procedure similar to the one described in example 2 prostate tumor growth was induced by subcutanous injection of a specific cell type to mice. One group of animals received IP3 via osmotic minipumps while another group of animals served as a control.

[4] = tested on: Lewis lung carcinoma cells (ATCC CRL-1642); assay: Lewis lung carcinoma experiment in mice: lung weight and histological angiogenesis
Method: Lewis lung carcinoma cells (ATCC CRL-1642) were grown as a suspension culture in a medium with 4.5 g/l glucose with 10 % heat inactivated bovine serum in a 5 % CO2 humidified atmosphere at 37°C. The cells were subcultured by diluting cell suspensions 1:6. After harvesting by centrifugation and resuspension, the cells were counted in a counting chamber. The cells were resuspended with medium to a concentration of 10 million cells/ml.
Ten male specific pathogen free mice at an age of 6 weeks were maintained in autoclaved caves with filter tops in a barrier unit equipped with HEPA filters. Autoclaved bedding, irradiated feed and sterile filtered water was used. The temperature and humidity was kept constant (22 ± 2°C, 65 ± 5 % RH).
To each animal 0.1 ml of the cell suspension was inoculated subcutanousely in the right flank at day 0. After 15 days, osmotic minipumps (ALZET) were surgically placed subcutaneously into 5 animals while another 5 animals, sham operated, served as a control group.
Each minipump contained 226 µl of a solution of 0.4 g/ml of the sodium salt of 1-D-myo-inositol-1,2,6-trisphosphate (IP3). The minipumps gave a continous dosage of IP3 for 6 days.
The injection of lung carcinoma cells cause a formation of tumors and angiogenesis in lung tissue. The weight of the lungs after the experiment is considered as a measurement of the amount of tumor tissue which is formed.

## O=P(O)(O)O[C@@H]1[C@H](OP(=O)(O)O)[C@H](O)[C@@H](O)[C@H](O)[C@H]1OP(=O)(O)O [IP3, D-myo-inositol-1,2,6-trisphosphate]
[1]; Day 0 (inoculation; minipumps placed after five days)
  Tumor volume: 0 mm^3
[1]; Day 10, sodium salt of IP3 1.0 g/2,5 ml, approx. 200 µl minipump s.c. from day 5, continuous for 14 days
  Tumor volume: 115 mm^3
[1]; Day 13, minipump s.c. from day 5, continuous for 14 days
  Tumor volume: 270 mm^3
[1]; Day 15, minipump s.c. from day 5, continuous for 14 days
  Tumor volume: 620 mm^3
[1]; Day 17, minipump s.c. from day 5, continuous for 14 days
  Tumor volume: 880 mm^3
[1]; Day 20, minipump s.c. from day 5, continuous for 14 days
  Tumor volume: 2420 mm^3
[2]
  toxic effects: no toxic effects
[3]; Day 0
  Tumor volume: 0 mm^3
[3]; Day 7
  Tumor volume: 36 mm^3
[3]; Day 10
  Tumor volume: 62 mm^3
[3]; Day 17
  Tumor volume: 51 mm^3
[3]; Day 24
  Tumor volume: 95 mm^3
[3]; Day 28
  Tumor volume: 171 mm^3
[3]; Day 35
  Tumor volume: 215 mm^3
[4]; IP3 minipump s.c. after 15 days, for 6 days, compared with sham operated animals
  angiogenesis (histological examination): lower angiogenesis
[4]; sodium salt of IP3 0.4 g/ml, 226 µl minipump s.c. after 15 days, continuous for 6 days, sham operated animals 0.312 g
  mean lung weight: 0.198 g
